#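 Tested at 5 concentrations; 48 h exposure; 96-well plates; endpoints linearly interpolated, else capped at highest concentration. GI50: concentration for 50% inhibition of growth.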 The source made the active and inactive calls. Rule as the data show it: active = GI50 up to about 1.1 µM and inactive = higher.
# What was measured:
# Assay in all cases: NCI anticancer screen, dose series, 48 h
# [1] = tested on: NCI-H226
# [2] = tested on: CCRF-CEM
# [3] = tested on: UACC-62
# [4] = tested on: Malme-3M
# [5] = tested on: NCI-H522
# [6] = tested on: KM-20L2
# [7] = tested on: NCI-H23
# [8] = tested on: A498
# [9] = tested on: SN12C
# [10] = tested on: SK-OV-3
# [11] = tested on: A549
# [12] = tested on: LXFL 529
# [13] = tested on: RPMI-8226
# [14] = tested on: UACC-257
# [15] = tested on: HT-29
# [16] = tested on: COLO 205
# [17] = tested on: HOP-92
# [18] = tested on: HCC 2998
# [19] = tested on: EKVX
# [20] = tested on: U-251
smiles,measurement,setting,value
O=c1c(Cl)c(Cl)cnn1CCCl,GI50,[1],23.2 µM (inactive)
same,GI50,[2],1.85 µM (inactive)
same,GI50,[3],3.4 µM (inactive)
same,GI50,[4],2.56 µM (inactive)
same,GI50,[5],0.558 µM (active)
same,GI50,[6],13 µM (inactive)
same,GI50,[7],2.52 µM (inactive)
same,GI50,[8],13.1 µM (inactive)
same,GI50,[9],12.9 µM (inactive)
same,GI50,[10],3.56 µM (inactive)
same,GI50,[11],17.9 µM (inactive)
same,GI50,[12],1.62 µM (inactive)
same,GI50,[13],6.5 µM (inactive)
same,GI50,[14],4.46 µM (inactive)
same,GI50,[15],2.81 µM (inactive)
same,GI50,[16],2.24 µM (inactive)
same,GI50,[17],1.93 µM (inactive)
same,GI50,[18],3.34 µM (inactive)
same,GI50,[19],6.73 µM (inactive)
same,GI50,[20],5.9 µM (inactive)

# Source: ChEMBL document CHEMBL1201862, “PubChem BioAssay data set” (2004)
